How the values were obtained:
MCF7 = experiment: Cytotoxicity against human MCF7 cells assessed as reduction in cell viability incubated for 24 hrs by MTT assay; assay type: functional, cell-based; details: for IC50: MCF7, 24 h
MDA-MB-231 [1] = experiment: Cytotoxicity against human MDA-MB-231 cells assessed as reduction in cell viability incubated for 24 hrs by MTT assay; assay type: functional, cell-based; details: for IC50: MDA-MB-231, 24 h
HepG2 = experiment: Cytotoxicity against human HepG2 cells assessed as reduction in cell viability incubated for 24 hrs by MTT assay; assay type: functional, cell-based; details: for IC50: HepG2, 24 h
MDA-MB-231 [2] = experiment: Induction of apoptosis in human MDA-MB-231 cells assessed as viable cells at IC50 incubated for 72 hrs by Alexa Fluor488-annexin V/PI staining based flow cytometric analysis (Rvb= 99.4 %); assay type: functional
MDA-MB-231 [3] = experiment: Induction of apoptosis in human MDA-MB-231 cells assessed as early apoptotic cells at IC50 incubated for 72 hrs by Alexa Fluor488-annexin V/PI staining based flow cytometric analysis (Rvb= 0.6 %); assay type: functional
MDA-MB-231 [4] = experiment: Induction of apoptosis in human MDA-MB-231 cells assessed as late apoptotic cells at IC50 incubated for 72 hrs by Alexa Fluor488-annexin V/PI staining based flow cytometric analysis (Rvb= 0.0 %); assay type: functional
MDA-MB-231 [5] = experiment: Induction of apoptosis in human MDA-MB-231 cells assessed as necrotic cells at IC50 incubated for 72 hrs by Alexa Fluor488-annexin V/PI staining based flow cytometric analysis (Rvb= 0.0 %); assay type: functional
Chorioallantoic membrane = experiment: Antiangiogenic activity in chicken fertilized egg chorioallantoic membrane measured upto 72 hrs by CAM assay; assay type: functional, tissue-based; details: Gallus gallus, dose 0.01-2 µM, time hrs <=72
HUVEC [6] = experiment: Antiproliferative activity against human HUVEC assessed as reduction in cell viability incubated for 24 hrs by MTT assay; assay type: functional, cell-based
HUVEC [7] = experiment: Induction of apoptosis in human HUVEC assessed as early apoptotic cells at IC50 incubated for 48 hrs by annexin V-FITC and PI staining based flow cytometry (reference value: <1%); assay type: functional
HUVEC [8] = experiment: Induction of apoptosis in human HUVEC assessed as late apoptotic cells at IC50 incubated for 48 hrs by annexin V-FITC and PI staining based flow cytometry; assay type: functional
[9] = Inhibition of VEGF expression in human HUVEC assessed as mean fluorescence intensity at IC50 incubated for 48 hrs by FITC based flow cytometry analysis (reference value: 53.91+/- 0.95); assay type: functional
[10] = Inhibition of VEGFR2 expression in human HUVEC assessed as mean fluorescence intensity at IC50 incubated for 48 hrs by FITC based flow cytometry analysis (reference value: 49.24 +/- 0.47); assay type: functional
[11] = Inhibition of VEGFR2 expression in human HUVEC assessed as mean fluorescence intensity at IC50 incubated for 48 hrs by fluorescence microscopic analysis (reference value: 1.448 +/- 0.01); assay type: functional

For O=C(Nc1ccccc1)Nc1cccc2c(Oc3ccc([N+](=O)[O-])cc3)cccc12, the inhibition (MCF7) was “Dose-dependent effect” and the IC50 (MCF7) was 0.953 µM.

With O=C(Nc1cccc(C(F)(F)F)c1)Nc1cccc2c(O)cccc12 the inhibition (MCF7) was “Dose-dependent effect” and the IC50 (MCF7) was 0.953 µM.

In the case of O=C(Nc1ccc(Cl)c(C(F)(F)F)c1)Nc1cccc2c(Oc3ccc([N+](=O)[O-])cc3)cccc12, the inhibition (MCF7) is reported as “Dose-dependent effect” and the IC50 (MCF7) is reported as 0.953 µM.

With COc1ccc(NC(=O)Nc2cccc3c(Oc4ccc([N+](=O)[O-])cc4)cccc23)cc1 the inhibition (MCF7) was “Dose-dependent effect”.

With O=C(Nc1ccccc1)Nc1cccc2c(O)cccc12 the inhibition (MCF7) was “Dose-dependent effect”.

With CC(=O)Nc1ccc(Oc2cccc3c(NC(=O)Nc4ccccc4)cccc23)cc1 the inhibition (MCF7) was “Dose-dependent effect”, the inhibition (MDA-MB-231 [1]) was “Dose-dependent effect” and the IC50 (MDA-MB-231 [1]) was 1.41 µM. For the same molecule, the inhibition (HepG2) was “Dose-dependent effect”, the IC50 (HepG2) was 0.258 µM and the Activity (MDA-MB-231 [2]) was 21.2%. The Activity (MDA-MB-231 [3]) was 46.37%, the Activity (MDA-MB-231 [4]) was 27.4% and the Activity (MDA-MB-231 [5]) was 4.5%. The Activity (Chorioallantoic membrane) was “Dose-dependent effect”.

With CC(=O)Nc1ccc(Oc2cccc3c(NC(=O)Nc4ccc(Cl)c(C(F)(F)F)c4)cccc23)cc1 the inhibition (MCF7) was “Dose-dependent effect”, the inhibition (MDA-MB-231 [1]) was “Dose-dependent effect” and the IC50 (MDA-MB-231 [1]) was 1.41 µM. For the same molecule, the inhibition (HepG2) was “Dose-dependent effect”, the IC50 (HepG2) was 0.258 µM and the Activity (MDA-MB-231 [2]) was 20.9%. The Activity (MDA-MB-231 [3]) was 47%, the Activity (MDA-MB-231 [4]) was 27.5% and the Activity (MDA-MB-231 [5]) was 4.6%. For the same molecule, the Activity (Chorioallantoic membrane) was “Dose-dependent effect”.

In the case of CNC(=O)c1cc(Oc2ccc(NC(=O)Nc3ccc(Cl)c(C(F)(F)F)c3)cc2)ccn1.Cc1ccc(S(=O)(=O)O)cc1 [SORAFENIB TOSYLATE], the IC50 (MCF7) is reported as 1.38 µM, the IC50 (MDA-MB-231 [1]) is reported as 0.349 µM and the IC50 (HepG2) is reported as 0.215 µM. For the same molecule, the IC50 (HUVEC [6]) was 1.95 µM, the Activity (HUVEC [7]) was 24.5% and the Activity (HUVEC [8]) was 25.6%. The Flu intensity [9] was 7.14, the Flu intensity [10] was 6.45 and the Flu intensity [11] was 1.1.

For O=C(Nc1cccc(C(F)(F)F)c1)Nc1cccc2c(Oc3ccc([N+](=O)[O-])cc3)cccc12, the inhibition (MCF7) was “Dose-dependent effect” and the IC50 (MCF7) was 0.953 µM.

Reference: ChEMBL document CHEMBL4706603, “Discovery of VEGFR-2 inhibitors exerting significant anticancer activity against CD44+ and CD133+ cancer stem cells (CSCs): Reversal of TGF-β induced epithelial-mesenchymal transition (EMT) in hepatocellular carcinoma” (Eur J Med Chem, 2020)
